Columns and labels:
SARS-CoV 3CLpro [1] = type: biochemical; conditions: activity class by pIC50 threshold 6
SARS-CoV 3CLpro [2] = conditions: SARS-CoV 3CLpro inhibitors (training set), ref: per compound, cited from earlier work; for pIC50: from literature IC50; for IC50: literature values
SARS-CoV-2 3CLpro = SARS-CoV-2 3CLpro (Severe acute respiratory syndrome coronavirus 2, UniProt P0DTD1); conditions: SARS-CoV pIC50 multiplied by similarity index (SI), training set compounds

SMILES	Inact.(<6)/Act.(>=6) (SARS-CoV 3CLpro [1])	pIC50 (SARS-CoV 3CLpro [2])	IC50 (SARS-CoV 3CLpro [2])	SI*pIC50 (SARS-CoV-2 3CLpro)
Cc1coc2c1C(=O)C(=O)c1c-2ccc2c1CCCC2(C)CO (centres unmarked) [CMP131]	Inact. (Inact.(<6))	4.971	10.7 µM	5.122
O=c1[nH]c2cc(Cl)cc(Cl)c2c(O)c1Sc1nnnn1-c1ccc(O)cc1 [CMP110]	Inact. (Inact.(<6))	4.975	10.6 µM	5.127
COc1ccc(C(c2c(O)c3cc(C)ccc3oc2=O)c2c(O)c3cc(C)ccc3oc2=O)cc1 [CMP105]	Inact. (Inact.(<6))	5.02	9.56 µM	5.171
O=C1Nc2ccc(S(=O)(=O)N3CCOCC3)cc2C1=O [CMP159]	Inact. (Inact.(<6))	4.898	12.7 µM	5.05
NC(=O)c1ccc2c(c1)C(=O)C(=O)N2c1cccc2ccccc12 [CMP118]	Act. (Act.(>=6))	6.4318	0.37 µM	6.584
O=C(Oc1ccc(S(=O)(=O)c2ccc(OC(=O)C(Cl)=C(Cl)Cl)cc2)cc1)C(Cl)=C(Cl)Cl [CMP137]	Act. (Act.(>=6))	6.046	0.9 µM	6.198
CCOC(=O)/C=C/[C@H](C[C@@H]1CCNC1=O)NC(=O)[C@H](Cc1ccccc1)NC(=O)[C@@H](NC(=O)[C@H](CO)NC(=O)OC(C)(C)C)C(C)C [CMP180]	Inact. (Inact.(<6))	4.824	15 µM	4.976
O=C(Oc1cncc(Cl)c1)c1ccco1 [CMP158]	Act. (Act.(>=6))	7.222	0.06 µM	7.374
O=c1cc(-c2ccc(O)cc2)oc2cc(O)cc(O)c12 [CMP152]	Inact. (Inact.(<6))	3.552	281 µM	3.704
COc1ccc(N2C(=O)NC(=O)/C(=C\c3cc(Cl)c(OCc4cccc(C(=O)O)c4)c(Cl)c3)C2=O)cc1 [CMP103]	Inact. (Inact.(<6))	5.164	6.86 µM	5.315
CC1CCN(S(=O)(=O)c2ccc3c(c2)C(=O)C(=O)N3)CC1 [CMP146]	Inact. (Inact.(<6))	5.928	1.18 µM	6.08
O=C1Nc2ccc(S(=O)(=O)N3CCCCC3)cc2C1=O [CMP145]	Inact. (Inact.(<6))	5.352	4.45 µM	5.503
CC1(C)CC(=O)c2c(NCc3ccco3)sc(C#N)c2C1 [CMP142]	Inact. (Inact.(<6))	4.796	16 µM	4.948
CC(C)c1cc2c(cc1O)[C@@]1(C)CCC[C@@](C)(CO)[C@@H]1CC2 [CMP173]	Inact. (Inact.(<6))	3.656	221 µM	3.808
CC(=O)n1nc(SSc2ccccc2[N+](=O)[O-])nc1C [CMP120]	Inact. (Inact.(<6))	5.504	3.13 µM	5.656
O=C(CSc1ncnc2c1sc1nc(N3CCOCC3)c3c(c12)CCCC3)NCc1ccco1 [CMP134]	Inact. (Inact.(<6))	4.0423	90.7 µM	4.194
O=C1C=CC(=O)c2cn(Cc3ccccc3)cc21 [CMP111]	Inact. (Inact.(<6))	5.1549	7 µM	5.307
O=c1cc(-c2ccc(O)c(-c3c(O)cc(O)c4c(=O)cc(-c5ccc(O)cc5)oc34)c2)oc2cc(O)cc(O)c12 [CMP154]	Inact. (Inact.(<6))	5.081	8.3 µM	5.233
Cc1coc2c1C(=O)C(=O)c1c-2ccc2c1CCCC2(C)C [CMP130]	Inact. (Inact.(<6))	5.796	1.6 µM	5.948
COc1ccc(-c2cc(=O)c3c(O)cc(O)c(-c4cc(-c5cc(=O)c6c(O)cc(OC)cc6o5)ccc4OC)c3o2)cc1 [CMP155]	Inact. (Inact.(<6))	4.416	38.4 µM	4.568
O=C(Oc1cncc(Cl)c1)c1cc2ccccc2oc1=O [CMP162]	Act. (Act.(>=6))	6.959	0.11 µM	7.11
O=C(Oc1cncc(Cl)c1)c1cscn1 [CMP166]	Act. (Act.(>=6))	6.569	0.27 µM	6.72

SMILES	Inact.(<6)/Act.(>=6) (SARS-CoV 3CLpro [1])	pIC50 (SARS-CoV 3CLpro [2])	IC50 (SARS-CoV 3CLpro [2])	SI*pIC50 (SARS-CoV-2 3CLpro)
CCOC(=O)C(=CNc1ccc(S(=O)(=O)c2ccc(/N=C/C(C(=O)OCC)=C(\O)OCC)cc2)cc1)C(=O)OCC [CMP139]	Inact. (Inact.(<6))	4.495	32 µM	4.6468
C=CCSc1ccccc1NC(=O)/C=C/c1ccccc1 [CMP106]	Inact. (Inact.(<6))	4.706	19.7 µM	4.857
COC(=O)[C@]1(C)CCC[C@]2(C)c3ccc(C(C)C)cc3CC[C@@H]12 [CMP125]	Inact. (Inact.(<6))	3.684	207 µM	3.836
CC(C)c1ccc(N(C(=O)c2ccco2)C(C(=O)NC(C)(C)C)c2cccnc2)cc1 (centres unmarked) [CMP182]	Inact. (Inact.(<6))	4.551	28.1 µM	4.7028
CC1=C(C(=O)OCCc2ccccc2)C(c2ccccc2[N+](=O)[O-])C2=C(CCCC2=O)N1 (centres unmarked) [CMP102]	Inact. (Inact.(<6))	5.602	2.5 µM	5.754
O=C(Cc1nccs1)c1nccs1 [CMP178]	Inact. (Inact.(<6))	4.398	40 µM	4.55
Clc1ccc(C2C(n3ccnc3)C(c3ccc(Br)cc3)=NN2c2ccc(Cl)c(Cl)c2)cc1 (centres unmarked) [CMP112]	Inact. (Inact.(<6))	5.602	2.5 µM	5.754
O=c1cc(-c2ccc(O)c(O)c2)oc2cc(O)cc(O)c12 [CMP153]	Inact. (Inact.(<6))	4.699	20 µM	4.851
Cc1c(O)c(O)cc2c1CC=C1[C@@]2(C)CC[C@@]2(C)[C@@H]3C[C@](C)(C(=O)O)CC[C@]3(C)CC[C@]12C [CMP161]	Inact. (Inact.(<6))	4.664	21.7 µM	4.816
CN1C(=O)C(=O)c2cc(S(=O)(=O)N3CCOCC3)ccc21 [CMP149]	Inact. (Inact.(<6))	5.004	9.91 µM	5.156
COc1cc(O)c2c(=O)cc(-c3ccc(OC)c(-c4c(O)cc(O)c5c(=O)cc(-c6ccc(O)cc6)oc45)c3)oc2c1 [CMP150]	Inact. (Inact.(<6))	4.495	32 µM	4.6468
O=C(/C=C/c1ccccc1)Nc1ccccc1SC(=O)/C=C/c1ccccc1 [CMP108]	Inact. (Inact.(<6))	5.975	1.06 µM	6.127
CCOC(=O)/C=C/[C@H](C[C@@H]1CCNC1=O)NC(=O)[C@H](CC(C)C)NC(=O)[C@@H](NC(=O)[C@H](CO)NC(=O)OC(C)(C)C)C(C)C [CMP179]	Inact. (Inact.(<6))	5	10 µM	5.152
CC(C)c1cc2c(cc1O)[C@@]1(C)CCCC(C)(C)[C@@H]1CC2 [CMP132]	Inact. (Inact.(<6))	4.305	49.6 µM	4.457
O=C1C(=O)N(Cc2ccccc2)c2ccc(S(=O)(=O)N3CCOCC3)cc21 [CMP148]	Inact. (Inact.(<6))	4.858	13.9 µM	5.01
CC(C)C[C@H](NC(=O)[C@@H](NC(=O)OCc1ccccc1)C(C)C)C(=O)N[C@@H](C[C@@H]1CCNC1=O)C(=O)c1nccs1 [CMP183]	Inact. (Inact.(<6))	5.022	9.5 µM	5.174
O=C(O)c1ccc(S(=O)(=O)c2cc(Br)c(O)c(Br)c2)cc1 [CMP138]	Inact. (Inact.(<6))	4.796	16 µM	4.948
CC(=O)c1ccccc1S(=O)(=O)c1ccccc1C(=O)O [CMP147]	Inact. (Inact.(<6))	4.796	16 µM	4.948
Cc1oc(C(C)(C)C)cc1-c1cc(NS(=O)(=O)c2cccs2)[nH]n1 [CMP136]	Inact. (Inact.(<6))	5	10 µM	5.152
CCn1c(NCc2ccc(N3N=C(c4ccccc4)CC3c3ccccc3)cc2)nc2ccccc21 (centres unmarked) [CMP114]	Inact. (Inact.(<6))	5.076	8.4 µM	5.228
COc1ccccc1/N=C/c1nc(-c2ccccc2)oc1OC(C)=O [CMP113]	Inact. (Inact.(<6))	5.481	3.3 µM	5.6333
O=C1C(=O)N(c2cccc3ccccc23)c2ccc(I)cc21 [CMP117]	Inact. (Inact.(<6))	5.959	1.1 µM	6.11

— paper PMC8611036, “An integrated method for optimized identification of effective natural inhibitors against SARS-CoV-2 3CLpro” (Scientific Reports, 2021)
